Source: US20250353864A1, “INDAZOLE CONTAINING MACROCYCLES AND THEIR USE” (BLOSSOMHILL THERAPEUTICS, INC., priority 2022, published 2025)
Where two headings read alike, the source gives them in different places.

Tests used:
[1] = cc_pd bond, 15-membered ring
[2] = cc_pd bond; 15-membered ring; Pd(dppf)Cl2/Cs2CO3; 1,4-dioxane/H2O 5:1; 127.0 mM; 90.0 °C
[3] = from C=Cc1nn(C2CCCCO2)c2ccc(-c3cnn(C)c3O[C@H](CC)CN(C)Cc3c(I)c(OCC)nn3CCO[Si](C)(C)C(C)(C)C)cc12; cc_pd bond; 15-membered ring; Pd(OAc)2/TBAC/NaHCO3; DMF; 97.8 mM; 80.0 °C; 1.0 h

## Cc1nn(C)c2c1C=Cc1nn(C3CCCCO3)c3ccc(cc13)-c1cnn(C)c1OCCOC2 (centres unmarked)
[1]; from Cc1nn(C)c(COCCOc2c(-c3ccc4c(c3)c(/C=C/B3OC(C)(C)C(C)(C)O3)nn4C3CCCCO3)cnn2C)c1I, Pd XPhos G4/K3PO4, DMA/H2O, 55.3 mM, 90.0 °C, 3.0 h
  ring closure, isolated yield: 14.2%

## 2-[(17E)-5,15-dimethyl-21-tetrahydropyran-2-yl-7,10-dioxa-4,5,13,14,20,21-hexazapentacyclo[17.5.2.0^2,6.0^12,160.0^22,26]hexacosa-1(25),2(6),3,12(16),14,17,19,22(26),23-nonaen-13-yl]acetic acid
[2]
  ring closure, yield after HPLC: 30%

## CCOc1nn(CCO[Si](C)(C)C(C)(C)C)c2c1C=Cc1nn(C3CCCCO3)c3ccc(cc13)-c1cnn(C)c1O[C@H](CC)CN(C)C2 (some centres unmarked)
[3]
  ring closure, crude yield: 62%

## CCOc1nn(CCO)c2c1/C=C/c1nn(C3CCCCO3)c3cc(F)c(cc13)-c1cnn(C)c1O[C@@H]1CCCN(C2)C1 (some centres unmarked)
[1]; from CCOc1nn(CCO)c(CN2CCC[C@@H](Oc3c(-c4cc5c(/C=C/B6OC(C)(C)C(C)(C)O6)nn(C6CCCCO6)c5cc4F)cnn3C)C2)c1I, CataCXium A Pd G3/K3PO4, dioxane, 112.0 mM, 90.0 °C, 2.0 h
  ring closure, isolated yield: 42%

## Cc1n[nH]c2c1/C=C/c1nn(C3CCCCO3)c3ccc(cc13)-c1cnn(C)c1CN(C(=O)OC(C)(C)C)CCO2 (centres unmarked)
[1]; from tert-butyl N-[2-[(4-iodo-3-methyl-1H-pyrazol-5-yl)oxy]ethyl]-N-[[2-methyl-4-[1-tetrahydropyran-2-yl-3-[(E)-2-(4,4,5,5-tetramethyl-1,3,2-dioxaborolan-2-yl)vinyl]indazol-5-yl]pyrazol-3-yl]methylicarbamate
  ring closure, isolated yield: 54%

## CCOc1nn(CCO[Si](C)(C)C(C)(C)C)c2c1/C=C/c1nn(C3CCCCO3)c3cc(F)c(cc13)-c1c(C)nn(C)c1O[C@@H](C)CN(C(C)C)C2 (some centres unmarked)
[1]; from C=Cc1nn(C2CCCCO2)c2cc(F)c(-c3c(C)nn(C)c3O[C@@H](C)CN(Cc3c(I)c(OCC)nn3CCO[Si](C)(C)C(C)(C)C)C(C)C)cc12, Pd(OAc)2/TBAC/NaHCO3, DMF, 96.7 mM, 140.0 °C, 1.0 h
  ring closure, isolated yield: 84%

## CCOC(=O)c1nn(C)c2c1-c1ccc3c(c1)c(nn3C1CCCCO1)/C=C/c1c(OCC)nn(CCO[Si](C)(C)C(C)(C)C)c1CN(CC)C[C@H](C)O2 (some centres unmarked)
[1]; from ethyl 5-[(1S)-2-[[2-[2-[tert-butyl(dimethyl)silyl]oxyethyl]-5-ethoxy-4-iodo-pyrazol-3-yl]methyl-ethyl-amino]-1-methyl-ethoxy]-1-methyl-4-(1-tetrahydropyran-2-yl-3-vinyl-indazol-5-yl) pyrazole-3-carboxylate, Pd(OAc)2/TBAC/NaHCO3, DMF, 67.4 mM, 120.0 °C
  ring closure, isolated yield: 77%

## Cc1c2c(nn1C)C=Cc1nn(C3CCCCO3)c3ccc(cc13)-c1cnn(C)c1O[C@@H](C)CN(C)C2 (some centres unmarked)
[1]; from Cc1c(CN(C)C[C@H](C)Oc2c(-c3ccc4c(c3)c(/C=C/B3OC(C)(C)C(C)(C)O3)nn4C3CCCCO3)cnn2C)c(I)nn1C, BrettPhos Pd G4/Na2CO3 aq, dioxane/H2O, 24.8 mM, 80.0 °C, 2.0 h
  ring closure, isolated yield: 58%
